Measurements taken from patent US8586739B2, “Heterocyclic compounds and their uses” (Amgen Inc., priority 2007, dated 2013).

The compounds below were run on human B cells (assay: Human B cells proliferation stimulated by anti-IgM (3H thymidine)). Details: Homo sapiens, B-cell, 72 h, purified human B cells, anti-Human IgM + CD40L-LZ.
Type: cell-based
Procedure, shortened: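 Human B cells were magnetically purified from PBMCs and plated at 50000/well in DMEM+5% FCS. Medium containing 250 ng/mL CD40L-LZ and 2 μg/mL anti-IgM was combined with PI3K inhibitor medium, and cells were incubated 72 h at 37° C. Proliferation was read by 0.5-1 uCi/well ^3H thymidine pulse (~18 h).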
For `CS(=O)(=O)c1cccc2nc(-c3ccccc3Cl)c(CNc3ncnc4[nH]cnc34)nc12` [N-((3-(2-chlorophenyl)-8-(methylsulfonyl)-2-quinoxalinyl)methyl)-9H-purin-6-amine], the IC50 was 2410 nM.
With `Fc1ccc(Cl)c(-c2nc3c(Cl)cccc3nc2CNc2ncnc3[nH]cnc23)c1` [N-((5-Chloro-3-(2-chloro-5-fluorophenyl)quinoxalin-2-yl)methyl)-9H-purin-6-amine] the IC50 was 165 nM.
In the case of `Fc1cccc(-c2nc3c(Cl)cccc3nc2CNc2ncnc3[nH]cnc23)c1` [N-((5-Chloro-3-(3-fluorophenyl)quinoxalin-2-yl)methyl)-9H-purin-6-amine], the IC50 is reported as 71.9 nM.
Compound `FC(F)(F)c1ccccc1-c1nc2c(Cl)cccc2nc1CNc1ncnc2[nH]cnc12` [N-((5-chloro-3-(2-(trifluoromethyl)phenyl)-2-quinoxalinyl)methyl)-9H-purin-6-amine] has an IC50 of 41.8 nM.
`Clc1ccccc1-c1nc2c(Cl)cccc2nc1CNc1ncnc2[nH]cnc12` [N-((5-chloro-3-(2-chlorophenyl)-2-quinoxalinyl)methyl)-9H-purin-6-amine] was tested, and the IC50 was 82.5 nM.
`Fc1cccc(-c2cc3c(Cl)cccc3nc2CNc2ncnc3[nH]cnc23)c1` [N-((5-chloro-3-(3-fluorophenyl)-2-quinolinyl)methyl)-9H-purin-6-amine] gave an IC50 of 130 nM.
In the case of `Fc1cccc(-c2nc3c(Br)cccc3cc2CNc2ncnc3[nH]cnc23)c1` [N-((8-Bromo-2-(3-fluorophenyl)quinolin-3-yl)methyl)-9H-purin-6-amine], the IC50 is reported as 68.8 nM.
Work on `Clc1cccc2cc(CNc3ncnc4[nH]cnc34)c(-c3nccs3)nc12` [N-((8-chloro-2-(1,3-thiazol-2-yl)-3-quinolinyl)methyl)-9H-purin-6-amine] yielded an IC50 of 209 nM.
Compound `Clc1cccc2cc(CNc3ncnc4[nH]cnc34)c(-c3cn[nH]c3)nc12` [N-((8-chloro-2-(1H-pyrazol-4-yl)-3-quinolinyl)methyl)-9H-purin-6-amine] has an IC50 of 158 nM.
Compound `Fc1ccc(F)c(-c2nc3c(Cl)cccc3cc2CNc2ncnc3[nH]cnc23)c1` [N-((8-chloro-2-(2,5-difluorophenyl)-3-quinolinyl)methyl)-9H-purin-6-amine] has an IC50 of 38.2 nM.
`CC(C)c1ncccc1-c1nc2c(Cl)cccc2cc1CNc1ncnc2[nH]cnc12` [N-((8-chloro-2-(2-(1-methylethyl)-3-pyridinyl)-3-quinolinyl)methyl)-9H-purin-6-amine] gave an IC50 of 30.6 nM.
With `CC(C)c1ccccc1-c1nc2c(Cl)cccc2cc1CNc1ncnc2[nH]cnc12` [N-((8-chloro-2-(2-(1-methylethyl)phenyl)-3-quinolinyl)methyl)-9H-purin-6-amine] the IC50 was 17.6 nM.
`Clc1cccc2cc(CNc3ncnc4[nH]cnc34)c(-c3ccccc3-c3nn[nH]n3)nc12` [N-((8-chloro-2-(2-(2H-tetrazol-5-yl)phenyl)-3-quinolinyl)methyl)-9H-purin-6-amine] gave an IC50 of 9710 nM.
Work on `CS(=O)(=O)c1ccccc1-c1nc2c(Cl)cccc2cc1CNc1ncnc2[nH]cnc12` [N-((8-chloro-2-(2-(methylsulfonyl)phenyl)-3-quinolinyl)methyl)-9H-purin-6-amine] yielded an IC50 of 151 nM.
`Fc1ccc(Cl)c(-c2nc3c(Cl)cccc3cc2CNc2ncnc3[nH]cnc23)c1` [N-((8-chloro-2-(2-chloro-5-fluorophenyl)-3-quinolinyl)methyl)-9H-purin-6-amine] showed an IC50 of 38.4 nM.
Compound `Clc1ccccc1-c1nc2c(Cl)cccc2cc1CNc1ccnc2[nH]cnc12` [N-((8-chloro-2-(2-chlorophenyl)-3-quinolinyl)methyl)-3H-imidazo[4,5-b]pyridin-7-amine] has an IC50 of 361 nM.
Compound `Cc1ncccc1-c1nc2c(Cl)cccc2cc1CNc1ncnc2[nH]cnc12` [N-((8-chloro-2-(2-methyl-3-pyridinyl)-3-quinolinyl)methyl)-9H-purin-6-amine] has an IC50 of 13.4 nM.
In the case of `Clc1cccc2cc(CNc3ncnc4[nH]cnc34)c(-c3ccccn3)nc12` [N-((8-chloro-2-(2-pyridinyl)-3-quinolinyl)methyl)-9H-purin-6-amine], the IC50 is reported as 34.1 nM.
`Clc1cccc2cc(CNc3ncnc4[nH]cnc34)c(-c3cccs3)nc12` [N-((8-chloro-2-(2-thiophenyl)-3-quinolinyl)methyl)-9H-purin-6-amine] was tested, and the IC50 was 104 nM.
